Converted amounts (≈) assume the structure as drawn. Square brackets hold non-standard residues; d marks the D form. Peptide text beside a SMILES is read from it. Dip = N[C@H](C(=O)O)C(c1ccccc1)c1ccccc1
What was measured:
[1] = test system: Streptococcus pneumoniae; assay: Antibacterial activity against multidrug resistant […] ATCC 700677 incubated for 24 hrs by microtiter plate method; assay type: functional
[2] = test system: Bacillus subtilis; assay: Antibacterial activity against Bacillus subtilis ATCC 6633 incubated for 24 hrs by microtiter plate method; assay type: functional
[3] = test system: Streptococcus pneumoniae; assay: Antibacterial activity against […] ATCC 49619 incubated for 24 hrs by microtiter plate method; assay type: functional
[4] = test system: Enterococcus faecium; assay: Antibacterial activity against Enterococcus faecium ATCC 27270 incubated for 24 hrs by microtiter plate method; assay type: functional
[5] = test system: Enterococcus faecium; assay: Antibacterial activity against vancomycin-resistant Enterococcus faecium ATCC 700221 incubated for 24 hrs by microtiter plate method; assay type: functional
[6] = test system: Bacillus cereus; assay: Antibacterial activity against Bacillus cereus ATCC 13061 incubated for 24 hrs by microtiter plate method; assay type: functional
[7] = test system: Enterococcus faecalis; assay: Antibacterial activity against vancomycin-resistant Enterococcus faecalis ATCC 51575 incubated for 24 hrs by microtiter plate method; assay type: functional
[8] = test system: Enterococcus faecalis; assay: Antibacterial activity against Enterococcus faecalis ATCC 29212 incubated for 24 hrs by microtiter plate method; assay type: functional
[9] = test system: Staphylococcus aureus; assay: Antibacterial activity against methicillin resistant Staphylococcus aureus ATCC BAA-1556 incubated for 24 hrs by microtiter plate method; assay type: functional
[10] = test system: Pseudomonas aeruginosa; assay: Antibacterial activity against Pseudomonas aeruginosa ATCC 27883 incubated for 24 hrs by microtiter plate method; assay type: functional
[11] = test system: Erythrocyte; assay: (§1) Hemolytic activity in human RBC assessed as hemolysis incubated for 2 hrs by spectrophotometer analysis; assay type: toxicity, cell-based; settings: erythrocyte, 2 h
[12] = test system: Staphylococcus aureus; assay: Antibacterial activity against Staphylococcus aureus ATCC 29213 incubated for 24 hrs by microtiter plate method; assay type: functional; settings: Staphylococcus aureus, ATCC 29213, read-out: MIC
[13] = test system: Escherichia coli; assay: Antibacterial activity against Escherichia coli ATCC 25922 incubated for 24 hrs by microtiter plate method; assay type: functional; settings: Escherichia coli, ATCC 25922, 24 h, read-out: MIC
[14] = as §1; assay type: toxicity, cell-based, Erythrocyte; settings: human red blood cells (erythrocytes)

Structure (SMILES): CN[C@H](CC(C)C)C(=O)N[C@H]1C(=O)N[C@@H](CC(N)=O)C(=O)N[C@H]2C(=O)N[C@H]3C(=O)N[C@H](C(=O)N[C@H](C(=O)O)c4cc(O)cc(O)c4-c4cc3ccc4O)[C@H](O)c3ccc(c(Cl)c3)Oc3cc2cc(c3O[C@@H]2O[C@H](CO)[C@@H](O)[C@H](O)[C@H]2O[C@H]2C[C@](C)(N)[C@H](O)[C@H](C)O2)Oc2ccc(cc2Cl)[C@H]1O [VANCOMYCIN]
- MIC [1]: 1.5 µg/mL (≈ 1.04 µM)
- MIC [2]: 0.7 µg/mL (≈ 0.483 µM)
- MIC [3]: 3.1 µg/mL (≈ 2.14 µM)
- MIC [4]: 1.5 µg/mL (≈ 1.04 µM)
- MIC [5]: > 50 µg/mL
- MIC [6]: 0.7 µg/mL (≈ 0.483 µM)
- MIC [7]: > 50 µg/mL
- MIC [8]: 0.7 µg/mL (≈ 0.483 µM)

Structure (SMILES): N=C(N)NCCC[C@@H]1NC(=O)[C@H](CCCNC(=N)N)NC(=O)[C@H](C(c2ccccc2)c2ccccc2)NC(=O)[C@H](C(c2ccccc2)c2ccccc2)NC(=O)[C@H](CCCNC(=N)N)NC(=O)[C@H](CCCNC(=N)N)NC(=O)[C@H](C(c2ccccc2)c2ccccc2)NC1=O (stereo in doubt; 17C)
- MIC ([9]; 24 h): 12.5 µg/mL (≈ 9.66 µM)
- MIC ([10]; 24 h): >100 µg/mL
- HC50 [11]: 145 µg/mL

Structure (SMILES): N=C(N)NCCC[C@@H]1NC(=O)[C@H](CCCNC(=N)N)NC(=O)[C@H](CCCNC(=N)N)NC(=O)[C@H](C(c2ccccc2)c2ccccc2)NC(=O)[C@H](C(c2ccccc2)c2ccccc2)NC(=O)[C@H](CCCNC(=N)N)NC1=O (cyclo([Dip][Dip]RRRR))
- MIC [12]: 6.2 µg/mL (≈ 5.79 µM)
- MIC [13]: 50 µg/mL (≈ 46.7 µM)
- MIC ([9]; Staphylococcus aureus, ATCC BAA-1556, 24 h, read-out: MIC): 6.2 µg/mL (≈ 5.79 µM)
- MIC ([10]; Pseudomonas aeruginosa, ATCC 27883, 24 h, read-out: MIC): 25 µg/mL (≈ 23.3 µM)
- HC50 at 2 h [14]: 110 µg/mL

From ChEMBL document CHEMBL5154681, “Small Amphiphilic Peptides: Activity Against a Broad Range of Drug-Resistant Bacteria and Structural Insight into Membranolytic Properties” (J Med Chem, 2022)
